From publication PMC11954145, “Antimicrobial and ADME properties of methoxylated, methylated and nitrated 2-hydroxynaphthalene-1 carboxanilides” (ADMET & DMPK, 2025)
Values after ≈ are worked out from the molar mass of the structure shown. Read-outs that look alike come from different tables or passages of the source.

Key:
VRE 342B = test: Antibacterial screening, broth microdilution MIC; type: cell-based, vancomycin-resistant E. faecalis; details: Enterococcus, vanA isolate, 24 h at 37 °C, read-out: MIC VRE 342B
[1] = test system: Mycobacterium smegmatis ATCC 700084; test: Antimycobacterial screening, broth dilution MIC; type: cell-based; details: Mycolicibacterium smegmatis, ATCC700084, 72 h; ATCC 700084, 3 days at 37 °C; read-out: MIC M. smegmatis
[2] = test system: human monocytic leukemia THP-1 cells; details: cited from earlier work
VRE 368 = test: Antibacterial screening, broth microdilution MIC; type: cell-based, vancomycin-resistant E. faecalis; details: Enterococcus, vanA isolate, 24 h at 37 °C, read-out: MIC VRE 368
MRSA SA 3202 = test: Antibacterial screening, broth microdilution MIC; type: cell-based, methicillin-resistant S. aureus; details: Staphylococcus aureus, clinical isolate, 24 h at 37 °C, read-out: MIC MRSA SA 3202
E. coli ATCC 25922 = test: Antibacterial screening, broth microdilution MIC; type: cell-based; details: Escherichia coli, ATCC25922; ATCC 25922, 24 h at 37 °C
MRSA SA 630 = test: Antibacterial screening, broth microdilution MIC; type: cell-based, methicillin-resistant S. aureus; details: Staphylococcus aureus, clinical isolate, 24 h at 37 °C, read-out: MIC MRSA SA 630
S. aureus ATCC 29213 = test: Antibacterial screening, broth microdilution MIC; type: cell-based; details: Staphylococcus aureus, ATCC29213; ATCC 29213, 24 h at 37 °C; read-out: MIC S. aureus
[3] = test system: Enterococcus faecalis ATCC 29212; test: Antibacterial screening, broth microdilution MIC; type: cell-based; details: ATCC29212, ATCC 29212, 24 h at 37 °C, read-out: MIC E. faecalis
[4] = Lipophilicity determination by RP-HPLC (log k, log D); type: physicochemical; details: for log D6.5: RP-HPLC C18, MeOH 72 % / acetate-buffered saline pH 6.5; for log D7.4: RP-HPLC C18, MeOH 72 % / acetate-buffered saline pH 7.4; for log k (logarithm of the capacity factor): RP-HPLC C18, MeOH 72 % / water 28 %
Method in brief: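 Isocratic RP-HPLC on a C18 column at 40 °C, UV detection at 210 nm, dead time from KI. Log k used MeOH/H2O 72:28, log D used MeOH/acetate-buffered saline (pH 7.4 or 6.5) 72:28. k and D were calculated as (tR–tD)/tD, three replicates.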

VRE 725B = test: Antibacterial screening, broth microdilution MIC; type: cell-based, vancomycin-resistant E. faecalis; details: Enterococcus, vanA isolate, 24 h at 37 °C, read-out: MIC VRE 725B
[5] = test system: Mycobacterium kansasii DSM 44162; test: Antimycobacterial screening, broth dilution MIC; type: cell-based; details: DSM44162, 336 h, read-out: MIC M. kansasii
MRSA 63718 [6] = test: Antibacterial screening, broth microdilution MIC; type: cell-based, methicillin-resistant S. aureus; details: Staphylococcus aureus, clinical isolate, 24 h at 37 °C, read-out: MIC MRSA 63718
[7] = test system: Mycobacterium tuberculosis ATCC 25177/H37Ra; test: Antimycobacterial screening, broth dilution MIC (Alamar blue); type: cell-based; details: 336 h, H37Ra, 14 days at 37 °C, Alamar blue, read-out: MIC M. tuberculosis
Method in brief: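 Broth microdilution in Middlebrook 7H9 with ADC, compounds twofold from 256 to 0.125 μg mL^-1, 1.5×10^6 M. tuberculosis cells per well, 14 days at 37 °C. Alamar blue was then added for 24 h. MIC is the lowest concentration preventing blue resazurin turning pink resorufin; three repeats.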

[8] = test system: Mycobacterium kansasii DSM 44162; set-up: method as in PMID 23924993; details: previously published monosubstituted derivatives; cited from earlier work
MRSA 63718 [9] = test system: MRSA 63718; set-up: method as in PMID 25692135; details: cited from earlier work

Row | Structure (SMILES) | MIC (VRE 342B) [µM] | MIC [1] [µM] | CC50 [2] [µM] | MIC (VRE 368) [µM] | MIC (MRSA SA 3202) [µM] | MIC (E. coli ATCC 25922) [µM] | MIC (MRSA SA 630) [µM] | MIC (S. aureus ATCC 29213) [µM] | MIC [3] [µM] | log D6.5 [4] | log D7.4 [4] | log k (logarithm of the capacity factor) [4] | MIC (VRE 725B) [µM] | MIC [5] [µM] | MIC (MRSA 63718 [6]) [µM] | MIC [7] [µM] | MIC ([5]; DSM 44162, 14 days at 37 °C) [µM] | MIC M. kansasii [8] [µM] | MIC of vancomycin (MRSA 63718 [9]) [mg/L]
1 | O=C(Nc1cccc([N+](=O)[O-])c1)c1c(O)ccc2ccccc12 [Compound 25, 2-hydroxy-N-(3-nitrophenyl)naphthalene-1-carboxamide] | 830 (≈ 256 µg/mL) | 208 (≈ 64.1 µg/mL) | > 20 | 830 (≈ 256 µg/mL) | 208 (≈ 64.1 µg/mL) | 830 (≈ 256 µg/mL) | 208 (≈ 64.1 µg/mL) | 208 (≈ 64.1 µg/mL) | 830 (≈ 256 µg/mL) | 0.3462 | 0.3058 | 0.4882 | 830 (≈ 256 µg/mL) | 104 (≈ 32.1 µg/mL) | 26 (≈ 8.02 µg/mL) | 104 (≈ 32.1 µg/mL) |  |  | 
2 | O=C(Nc1ccccc1[N+](=O)[O-])c1c(O)ccc2ccccc12 [Compound 24, 2-hydroxy-N-(2-nitrophenyl)naphthalene-1-carboxamide] | 830 (≈ 256 µg/mL) | 208 (≈ 64.1 µg/mL) | > 20 | 830 (≈ 256 µg/mL) | 51.9 (≈ 16 µg/mL) | 830 (≈ 256 µg/mL) |  | 26 (≈ 8.02 µg/mL) | 830 (≈ 256 µg/mL) | 0.3077 | 0.3103 | 0.3033 | 830 (≈ 256 µg/mL) |  | 415 (≈ 128 µg/mL) | 104 (≈ 32.1 µg/mL) | 51.9 (≈ 16 µg/mL) |  | 
3 | O=C(Nc1ccc(Br)cc1)c1c(O)ccc2ccccc12 [N-(4-bromophenyl)-2-hydroxynaphthalene-1-carboxamide] |  |  |  |  |  |  |  |  |  |  |  |  |  |  |  |  |  | 93 (≈ 31.8 µg/mL) | 
4 | CN[C@H](CC(C)C)C(=O)N[C@H]1C(=O)N[C@@H](CC(N)=O)C(=O)N[C@H]2C(=O)N[C@H]3C(=O)N[C@H](C(=O)N[C@H](C(=O)O)c4cc(O)cc(O)c4-c4cc3ccc4O)[C@H](O)c3ccc(c(Cl)c3)Oc3cc2cc(c3O[C@@H]2O[C@H](CO)[C@@H](O)[C@H](O)[C@H]2O[C@H]2C[C@](C)(N)[C@H](O)[C@H](C)O2)Oc2ccc(cc2Cl)[C@H]1O [vancomycin] |  |  |  |  |  |  |  |  |  |  |  |  |  |  |  |  |  |  | 2
5 | O=C(Nc1ccc(C(F)(F)F)cc1)c1c(O)ccc2ccccc12 [2-hydroxy-N-(4-trifluoromethylphenyl)naphthalene-1-carboxamide] |  |  |  |  |  |  |  |  |  |  |  |  |  |  |  |  |  | 23 (≈ 7.62 µg/mL) | 
